Source: PMC10183829, “Shuffled ATG8 interacting motifs form an ancestral bridge between UFMylation and autophagy” (The EMBO Journal, 2023)
“Also recorded” adds a separate entry of the source. No end group written: not given here.

Tests used:
ATG8A = biological target: T1, ATG8A (Arabidopsis thaliana, UniProt Q8LEM4); assay: Fluorescence anisotropy binding of TAMRA-labeled AtC53 IDR-derived peptides to ATG8A
T1 construct: made in house; host or cells: E. coli Rosetta2 (DE3) pLysS
Description: (§1) For fluorescence anisotropy measurements, all peptides were in‐house synthetized and HPLC purified attached to 5(6)‐Carboxytetramethylrhodamine (TAMRA) to its N‐terminal. Binding affinities of ATG8A or AtUFM1 to TAMRA‐labeled peptides were measured by the change in fluorescence anisotropy in an FS5 Spectrofluorometer (Edinburgh Instruments) with excitation at 550 nm (slit width 5 nm) and emission at 580 nm (slit width 5 nm). […] Binding curves were fitted using Prism Software (GraphPad).

AtUFM1 = biological target: T2, AtUFM1 (Arabidopsis thaliana, UniProt Q9CA23); assay: Fluorescence anisotropy binding of TAMRA-labeled AtC53 IDR-derived peptides to AtUFM1
T2 construct: made in house; host or cells: E. coli Rosetta2 (DE3) pLysS
Description: as §1

[1] = tested on: GST-HsUFM1 / MBP-HsC53 interaction; assay: In vitro GST pulldown competition of the HsUFM1-HsC53 interaction; format: binding, Homo sapiens; conditions: cAIM peptide 200 μM; immunoblot read-out
Description: (§2) For pulldown experiments, 5 μl of glutathione magnetic agarose beads (Pierce Glutathione Magnetic Agarose Beads, Thermo Scientific) was equilibrated by washing them two times with wash buffer (100 mM Sodium Phosphate pH 7.2, 300 mM NaCl, 1 mM DTT, 0.01% (v/v) IGEPAL). Normalized E. coli clarified lysates or purified proteins were mixed, according to the experiment, added to the washed beads, and incubated on an end‐over‐end rotator for 1 h at 4°C. Beads were washed five times with 1 ml wash buffer. Bound proteins were eluted by adding 50 μl Laemmli buffer. Samples were analyzed by western blotting or Coomassie staining.

HsUFM1 = assay: Native mass spectrometry (nMS) complex formation with HsUFM1; format: binding, Homo sapiens; conditions: HsUFM1 5 μM, peptide 25 μM
Description: Proteins were buffer exchanged into ammonium acetate using BioRad Micro Bio‐Spin 6 Columns. Native mass spectrometry experiments were carried out on a Synapt G2Si instrument (Waters, Manchester, UK) with a nanoelectrospray ionization source (nESI). Mass calibration was performed by a separate infusion of NaI cluster ions. Solutions were ionized from a thin‐walled borosilicate glass capillary (i.d. 0.78 mm, o.d. 1.0 mm, Sutter Instrument Co., Novato, CA, USA) pulled in‐house to nESI tip with a Flaming/Brown micropipette puller (Sutter Instrument Co., Novato, CA, USA). A potential of 0.8 kV was applied to the solution via a thin platinum wire (diameter 0.125 mm, Goodfellow, Huntingdon, UK). The following instrument parameters were used: capillary voltage 0.8 kV, sample cone voltage 40 V, source offset 60 V, source temperature 40°C, trap collision energy 4.0 V, and trap gas 3 ml/min. Data were processed using Masslynx V4.2 and OriginPro 2021.

[2] = tested on: GST-GABARAP / mCh-HsC53 interaction; assay: On-bead competition of the GABARAP-HsC53 interaction; format: binding, human; conditions: 1 μM HsC53; cAIM peptide 0-100 μM; 4 replicates
Description: (§3) Glutathione‐Sepharose 4B bead slurry (Cytiva, average diameter 90 μm) was washed and diluted 10 times in HEPES buffer (25 mM HEPES pH 7.5, 150 mM NaCl, 1 mM DTT). The beads were then incubated for 30 min at 4°C (16 rpm horizontal rotation) with GST‐tagged bait proteins (2 μM of GST, GST‐FIP200 CD, GST‐ATG8A, GST‐GABARAP, GST‐AtUFM1, and GST‐HsUFM1). The beads were washed five times in 10 times the bead volume of HEPES buffer. The buffer was removed, and the beads were resuspended 1:20 in HEPES buffer. 10 μl of diluted beads was mixed with 20 μl of mCherry‐tagged binding partner at a concentration of 1.5 μM (0.5 μl bead slurry and 1 μM binding partner final concentrations) with or without competitor, as stated in the relative experiment. […]
(§4) From images acquired from a Zeiss LSM700 confocal microscope, the quantification of fluorescence was performed in ImageJ (Schindelin et al, [2012]) by drawing a line across each bead and taking the maximum gray value along the line. The maximum gray value for any given pixel represents the fluorescence intensity.
(§5) For images acquired from a Zeiss LSM800 confocal microscope, we used a custom Fiji Macro. […] In the end, the mean fluorescent intensities were exported out and used for quantification.
(§6) For each method, the fluorescence intensity was normalized against the mean of the control condition.

[3] = tested on: GST-HsUFM1 / mCh-HsC53 interaction; assay: On-bead competition of the HsUFM1-HsC53 interaction; format: binding, Homo sapiens; conditions: 1 μM HsC53; cAIM peptide 0-100 μM; UBA5 LIR peptide or GABARAP 100 μM
Description: as §3, §4, §5, §6

[4] = tested on: GST-ATG8A / mCh-AtC53 interaction; assay: On-bead competition of the ATG8A-AtC53 interaction; format: binding, Arabidopsis thaliana; conditions: 1 μM AtC53; cAIM peptide 0-100 μM; 2 independent replicates containing 2 technical replicates
Description: as §3, §4, §5, §6

[5] = tested on: GST-AtUFM1 / mCh-AtC53 interaction; assay: On-bead competition of the AtUFM1-AtC53 interaction; format: binding, Arabidopsis thaliana; conditions: 1 μM AtC53; cAIM peptide 0-100 μM; 2 independent replicates containing 2 technical replicates
Description: as §3, §4, §5, §6

[6] = tested on: GST-GABARAP / MBP-C53 interaction; assay: In vitro GST pulldown competition of the GABARAP-C53 interaction; format: binding, human; conditions: cAIM peptide 200 μM; immunoblot read-out
Description: as §2

T1 sequence (Q8LEM4 whole entry): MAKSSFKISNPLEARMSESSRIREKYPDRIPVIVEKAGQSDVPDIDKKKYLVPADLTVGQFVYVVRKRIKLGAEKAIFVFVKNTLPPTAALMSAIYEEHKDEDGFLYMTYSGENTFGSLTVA
T2 sequence (Q9CA23 whole entry): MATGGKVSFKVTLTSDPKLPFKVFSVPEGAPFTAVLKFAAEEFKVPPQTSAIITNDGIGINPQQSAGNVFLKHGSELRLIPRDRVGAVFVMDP

## AADSIDADITVET [sAIM mut, sAIM mutant peptide where the tryptophan was mutated to alanine]
ATG8A; 50 nM TAMRA-labeled peptide, up to 320 μM ATG8A
  Behaviour in fluorescence anisotropy titration with ATG8 (in words): did not show any change
AtUFM1; 50 nM TAMRA-labeled peptide, up to 320 μM AtUFM1
  Behaviour in fluorescence anisotropy titration with UFM1 (in words): did not show any change

## AADSIDWDITVETPEIDWDVSMVEEV [sAIM1,2]
AtUFM1
  Kd: 148 µM

## AADSWDDIITVET [cAIM mut]
ATG8A
  Kd: 94.3 µM

## DVSEISWDVSVET [sAIM3]
ATG8A
  Kd: 176 µM

## EPLDFDWEIVLEEEM [cAIM peptide]
[1]
  Competition of the HsUFM1-HsC53 interaction in pulldown (in words): cannot outcompete
HsUFM1
  Complex formation with HsUFM1 by nMS (in words): did not appreciably interact; also recorded: negligible amount of 1:1 complex
[2]
  Competition of the HsC53-GABARAP interaction (in words): outcompeted
[3]
  Competition of the HsC53-HsUFM1 interaction (in words): could not outcompete
[4]
  Competition of the AtC53-ATG8A interaction (in words): outcompeted
[5]
  Competition of the AtC53-AtUFM1 interaction (in words): could not outcompete
[6]
  Competition of the GABARAP-C53 interaction in pulldown (in words): outcompeted

## GPLHDDNEWNISVVDD [UBA5 LIR peptide]
HsUFM1
  Complex formation with HsUFM1 by nMS (in words): forms a 1:1 complex
[3]
  Competition of the HsC53-HsUFM1 interaction (in words): able to disrupt
